From US11279733B2, “Peptide antibiotics” (priority 2017, dated 2022)
Values after ≈ are worked out from the molar mass of the structure shown. Where two headings read alike, the source gives them in different places. Positions of bridges follow the written chain, without caps; N, C: chain ends. Non-standard residues stand in square brackets, D forms with d. Residues, ends and D or L forms follow the SMILES beside them. *: point of attachment. Decanoyl(3R-OH) = CCCCCCC[C@@H](O)CC(=O)*; dBip = N[C@H](Cc1ccc(-c2ccccc2)cc1)C(=O)O; dPhe(4-NH2) = Nc1ccc(C[C@@H](N)C(=O)O)cc1; Octanoyl(3-OH) = CCCCCC(O)CC(=O)*; dDab = NCC[C@@H](N)C(=O)O; Dab = NCC[C@H](N)C(=O)O; Dap = NC[C@H](N)C(=O)O

Experiments:
[1] = test system: P. aeruginosa GN_043, PmxR
Outline: (§1)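 Mid-log cultures grown in Mueller Hinton broth at 37° C were tested by 2-fold broth microdilution at 5×10^5 CFU/mL final. Compounds were dissolved in water and tested over a final range of 32 to 0.015 μg/mL.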

[2] = test system: P. aeruginosa ATCC 27853; settings: ATCC 27853
Outline: as §1

[3] = test system: K. pneumoniae ATCC 13883; settings: ATCC 13883
Outline: as §1

[4] = test system: K. pneumoniae GN_106, PmxR; settings: GN 106, PmxR
Outline: as §1

[5] = test system: K. pneumoniae ATCC BAA-2146, NDM-1 pos; settings: ATCC BAA-2146
Outline: as §1

[6] = test system: A. baumannii GN_093 PmxR; settings: GN 093 PmxR
Outline: as §1

[7] = test system: S. aureus ATCC 25923, MSSA; settings: ATCC 25923
Outline: as §1

[8] = test system: K. pneumoniae GN_102 PmxR; settings: GN 102 PmxR
Outline: as §1

[9] = test system: P. aeruginosa GN_105, PmxR; settings: GN 105, PmxR
Outline: as §1

[10] = test system: E. coli ATCC 25922; settings: ATCC 25922
Outline: as §1

[11] = test system: A. baumannii ATCC 19606; settings: ATCC 19606
Outline: as §1

[12] = test system: K. pneumoniae ATCC 700603, MDR; settings: ATCC 700603
Outline: as §1

[13] = in vitro; settings: human
Procedure: Cytotoxicity of the synthesised peptides was evaluated by comparison with commercially available colistin (polymyxin E), polymyxin B (Sigma chemical Co., St. Louis, Mo., U.S.A.) and synthetic octapeptin C4 by conducting lactate dehydrogenase (LDH) assay. CC50 values calculated based on curve fitting of dose dependent inhibition of cell growth represented the cytotoxicity of the peptide. Human kidney 2 (HK2) cells were seeded as 2000 cells per well in a 384 well cell culture plate in a final volume of 20 μL in DMEM/F12 medium (Invitrogen #11330057), in which 10% of FBS was added. Cells were incubated for 24 hours at 37° C., 5% CO2 to allow cells to attach to the plates. Similar conditions were employed for HEK293 and HepG2 cytotoxicity assays.
Colistin and polymyxin B were tested from a range of 2 mM to 0.9 μM. 120 μL of the 1 mM stock solutions in water of each synthesised peptide were freeze-dried and processed for LDH assay. After freeze-dry procedure, the compounds were reconstituted into 600 μM solutions using culture media. All tested compounds were diluted from 600 μM to 0.27 μM in 3-fold dilutions. Then 20 μL of each dilution was added into 20 uL of culture medium in quadruplicate to reach the final concentrations. The cells were incubated with the compounds for 24 h at 37° C., 5% CO2. After the incubation, 5 μL of culture medium was added to 50 μL of LDH assay buffer and incubated for 1 h at room temperature. The absorbance was read at 450 nm using Polarstar. The data was then analysed by Prism software. […] Nephrotoxicity Assessment in Human Proximal Tubule Cells.

SMILES	MIC P. aeruginosa GN_043, PmxR ([1]; polymyxin-resistant) [µg/mL]	MIC P. aeruginosa ATCC 27853 [2] [µg/mL]	MIC K. pneumoniae ATCC 13883 [3] [µg/mL]	MIC K. pneumoniae GN_106, PmxR [4] [µg/mL]	MIC K. pneumoniae ATCC BAA-2146, NDM-1 pos [5] [µg/mL]	MIC A. baumannii GN_093 PmxR [6] [µg/mL]	MIC S. aureus ATCC 25923, MSSA [7] [µg/mL]	MIC K. pneumoniae GN_102 PmxR [8] [µg/mL]	MIC P. aeruginosa GN_105, PmxR [9] [µg/mL]	MIC E. coli ATCC 25922 [10] [µg/mL]	MIC A. baumannii ATCC 19606 [11] [µg/mL]	MIC K. pneumoniae ATCC 700603, MDR [12] [µg/mL]	CC50 at 24 h [13] [µM]	MIC P. aeruginosa GN_043, PmxR ([1]; P. aeruginosa GN_043, PmxR) [µg/mL]	MIC P. aeruginosa GN_043, PmxR [1] [µg/mL]
CCCCCCC[C@@H](O)CC(=O)N[C@H](CCN)C(=O)N[C@H]1CCNC(=O)[C@H](CCC(=O)O)NC(=O)[C@H](CCN)NC(=O)[C@H](CCN)NC(=O)[C@H](CC(C)C)NC(=O)[C@@H](Cc2ccccc2)NC(=O)[C@H](CCN)NC1=O [compound 6512, 3(R)OH-nC9CO-D-Dab-cyc[L-Dab-L-Dab-D-Phe-L-Leu-L-Dab-L-Dab-L-Glu]] ({Decanoyl(3R-OH)}-[dDab][Dab][Dab][dF]L[Dab][Dab]E; lactam 2-C)	>32	8 (≈ 7.54 µM)	>64	>32	>64	>32	>32	>32	>32	>64	>64	64 (≈ 60.4 µM)	> 300	–	–
CCCCCCC[C@@H](O)CC(=O)N[C@H](CCN)C(=O)N[C@H]1CCNC(=O)[C@H](Cc2ccccc2)NC(=O)[C@H](CN)NC(=O)[C@H](CCN)NC(=O)[C@H](CC(C)C)NC(=O)[C@@H](Cc2ccc(-c3ccccc3)cc2)NC(=O)[C@H](CCN)NC1=O [compound 5384, 3(R)OH-nC9CO-D-Dab-cyc[L-Dab-L-Dab-D-Bip-L-Leu-L-Dab-L-Dap-L-Phe]] ({Decanoyl(3R-OH)}-[dDab][Dab][Dab][dBip]L[Dab][Dap]F; lactam 2-C)	4 (≈ 3.51 µM)	4 (≈ 3.51 µM)	4 (≈ 3.51 µM)	8 (≈ 7.01 µM)	4 (≈ 3.51 µM)	4 (≈ 3.51 µM)	4 (≈ 3.51 µM)	16 (≈ 14 µM)	4 (≈ 3.51 µM)	4 (≈ 3.51 µM)	8 (≈ 7.01 µM)	8 (≈ 7.01 µM)	24	–	–
CCCCCCC[C@@H](O)CC(=O)N[C@H](Cc1ccc(N)cc1)C(=O)N[C@H]1CCNC(=O)[C@H]([C@@H](C)O)NC(=O)[C@H](CCN)NC(=O)[C@H](CCN)NC(=O)[C@H](CC(C)C)NC(=O)[C@@H](Cc2ccccc2)NC(=O)[C@H](CCN)NC1=O [compound 6397, 3(R)OH-nC9CO-D-4NH2Phe-cyc[L-Dab-L-Dab-D-Phe-L-Leu-L-Dab-L-Dab-L-Thr]] ({Decanoyl(3R-OH)}-[dPhe(4-NH2)][Dab][Dab][dF]L[Dab][Dab]T; lactam 2-C)	–	>64	>64	>32	>64	>32	>32	>32	>32	>64	>64	>64	> 300	>32	–
CCCCCC(O)CC(=O)N[C@H](CCN)C(=O)N[C@H]1CCNC(=O)[C@H](CC(C)C)NC(=O)[C@H](CCN)NC(=O)[C@H](CCN)NC(=O)[C@H](CC(C)C)NC(=O)[C@@H](Cc2ccccc2)NC(=O)[C@H](CCN)NC1=O (stereo partly drawn) [compound 5012, 3OH-nC7CO-D-Dab-cyc[L-Dab-L-Dab-D-Phe-L-Leu-L-Dab-L-Dab-L-Leu]] ({Octanoyl(3-OH)}-[dDab][Dab][Dab][dF]L[Dab][Dab]L; lactam 2-C)	–	4 (≈ 3.94 µM)	8 (≈ 7.87 µM)	>32	32 (≈ 31.5 µM)	>32	>32	–	4 (≈ 3.94 µM)	32 (≈ 31.5 µM)	>32	16 (≈ 15.7 µM)	130	–	4 (≈ 3.94 µM)
